Results from article PMC10059905, “The Bioactivity of Xylene, Pyridine, and Pyrazole Aza Macrocycles against Three Representative Leishmania Species” (Pharmaceutics, 2023).
Read-outs that look alike come from different tables or passages of the source.

Key:
[1] = tested on: L. braziliensis promastigote forms; assay: In vitro activity against promastigote forms; format: cell-based; details: for Selectivity Index Promastigote Forms: J774.2 Macrophage IC50/Parasite IC50; for IC50: 48 h, 27 °C, means of three separate experiments, read-out: Compound IC50 Promastigote Forms
Description: (§1) Three Leishmania species were studied, each one as a pathogenic agent for each clinical form: L. donovani for VL, L. infantum for CL, and L. braziliensis for ML.
(§2) In order to perform this experiment, promastigotes were harvested in 24-well microplates and different drug concentrations were added in order to reach 12.5, 25, 50, and 100 µM and maintained at 27 °C for 48 h. They were counted after that time was elapsed in a Neubauer haemocytrometric chamber.

[2] = tested on: L. donovani promastigote forms; assay: In vitro activity against promastigote forms; format: cell-based; details: for Selectivity Index Promastigote Forms: J774.2 Macrophage IC50/Parasite IC50; for IC50: 48 h, 27 °C, means of three separated experiments, read-out: Compound IC50 Promastigote Forms
Description: as §1, §2

[3] = tested on: L. infantum promastigote forms; assay: In vitro activity against promastigote forms; format: cell-based; details: for Selectivity Index Promastigote Forms: J774.2 Macrophage IC50/Parasite IC50; for IC50: 48 h, 27 °C, means of three separate experiments, read-out: Compound IC50 Promastigote Forms
Description: as §1, §2

[4] = tested on: L. braziliensis amastigote forms; assay: In vitro activity against amastigote forms in J774.2 macrophages; format: cell-based; details: for Selectivity Index Amastigote Forms: J774.2 Macrophage IC50/Parasite IC50; for IC50: in J774.2 macrophages, means of three separate experiments, read-out: Compound IC50 Amastigote Forms
Description: (§3) A similar method was used for the amastigote assay. First, J774.2 macrophages were harvested in 24-well microplates with round coverslips at the bottom, where cells will attach. Once cells are fixated, they are infected with promastigotes (10 per each macrophage cell) and compounds were added to reach the same final concentrations as in the previous experiment. After one day, promastigotes transform into amastigotes and microplates are maintained for two days at 37 °C. Once that time is elapsed, coverslips are collected and fixated to a microscope slide and dyed with Giemsa. Amastigotes are then counted using a microscope from a total of 200 random macrophages.

[5] = tested on: L. infantum amastigote forms; assay: as above; format: cell-based; details: for Selectivity Index Amastigote Forms: J774.2 Macrophage IC50/Parasite IC50; for IC50: in J774.2 macrophages, means of three separate experiments, read-out: Compound IC50 Amastigote Forms
Description: as §3

[6] = tested on: J774.2 macrophage cell line; assay: Macrophage cytotoxicity; format: cell-based; details: J774.2 macrophages, means of three separate experiments, read-out: Macrophage Toxicity IC50
Excerpt: Macrophages are cells naturally infected by Leishmania parasites. For that reason, they were used as host cell models, specifically the J774.2 macrophage cell line [European Collection of Authenticated Cell Cultures (ECACC) number 91051511]. Cells were used to test the cytotoxicity of the new compound (establishing IC50 via testing different drug concentrations on cells) and they were used for parasite infectivity assays.

L. braziliensis [7] = assay: Infectivity assay in J774.2 macrophages; format: cell-based; details: test dosage IC25, 10 days
Excerpt: Following a similar method as the described one in the amastigote experiment, macrophages were harvested and infected with promastigotes in their stationary phase. The test dosage was IC25 for this experiment. The coverslips were collected every 2 days for 10 days and counted in order to determine if drugs affected promastigote infection and amastigote division within the cells by measuring the infection rate (percentage of infected cells) and amastigote number per infected cell.

L. braziliensis [8] = assay: Metabolite excretion (1H-NMR of supernatants); format: cell-based; details: IC25, 72 h, vs untreated
Excerpt: (§4) Active compounds can trigger metabolic alterations within parasite mitochondria. Those alterations can be proven by observing alterations in the excreted metabolites quantity. Trypanosomatids excrete different metabolites to the medium in order to get rid of the carbonate skeleton instead of oxidizing glucose to CO2 and water as vertebrates do. Each metabolite is produced in a certain area of the mitochondrion and by a certain enzyme, thus, it can be inferred that these particular zones or enzymes are being affected by drug action. For this experiment, cultures of each species with an initial concentration of 5 × 10^5 cells/mL were stored at 27 °C for 72 h with IC25 as the test dosage. After this time elapsed, cultures were centrifuged at 400× g for 10 min and supernatants were collected and examined by ^1H-NMR.

L. infantum = assay: Metabolite excretion (1H-NMR of supernatants); format: cell-based; details: IC25, 72 h, vs untreated
Excerpt: as §4

[9] = tested on: L. donovani amastigote forms; assay: In vitro activity against amastigote forms in J774.2 macrophages; format: cell-based; details: for Selectivity Index Amastigote Forms: J774.2 Macrophage IC50/Parasite IC50; for IC50: in J774.2 macrophages, means of three separated experiments, read-out: Compound IC50 Amastigote Forms
Description: as §3

L. infantum Fe-SOD = assay: SOD inhibition assay (Beyer and Fridovich method); format: biochemical; details: L. infantum excreted Fe-SOD
Excerpt: Superoxide dismutase (SOD) is a key enzyme for cell survival against oxidative stress. Host cells induce oxidative bursts to create reactive oxygen species (ROS) within parasite cells that are toxic to them. For that reason, Leishmania cells rely on SOD to counteract this defense. While vertebrate SOD is linked to a copper, zinc (Cu/Zn-SOD), or manganese atom (Mn-SOD), trypanosomatid SOD is linked to an iron atom (Fe-SOD). This difference makes SOD a perfect target for drugs: if they are able to reduce its activity, cell survival will be compromised. For testing, if drugs are able to reduce this enzymatic activity, promastigotes are largely harvested and then stressed in the same culture medium without calf serum, in order to trigger stress and make them excrete SOD. This SOD is collected and semi-purified by a method described in Martín-Montes et al. 2017 [10]. Excreted Fe-SOD was mixed with the different reagents of the Beyer and Fridovich method and measured in a UV spectrophotometer twice. The second measurement took place after 10 min under direct light and constant stirring. Commercial human SOD (Cu/Zn-SOD) (Sigma®, St. Louis, MO, USA) activity was also measured for comparison.

L. donovani = assay: Metabolite excretion (1H-NMR of supernatants); format: cell-based; details: IC25, 72 h, vs untreated
Excerpt: as §4

Molecule | IC50 ([1]; Leishmania braziliensis) [µM] | IC50 ([2]; Leishmania donovani) [µM] | IC50 ([3]; Leishmania infantum) [µM] | Selectivity Index Promastigote Forms [1] | Selectivity Index Promastigote Forms [2] | Selectivity Index Promastigote Forms [3] | IC50 ([6]; Mus musculus) [µM] | also measured
Glucantime [reference compound] | – | – | – | 3 | 7 | 3.5 | – | IC50 [1]: 51.4 ± 2.5 µM; IC50 [2]: 23.7 ± 0.8 µM; IC50 [3]: 50.1 ± 2.3 µM; Selectivity Index Amastigote Forms [4]: 1.7; IC50 [4]: 103 µM; Selectivity Index Amastigote Forms [9]: 2; IC50 [9]: 76.4 ± 4.1 µM; Selectivity Index Amastigote Forms [5]: 2; IC50 [5]: 84.6 ± 4.3 µM; IC50 [6]: 176 ± 10.6 µM
c1cc2cc(c1)CNCCCNCCCNCCCNC2 [mB333, 3,7,11,15 Tetraaza-1(2,6)-benzenacyclohexadecaphane] | 210 ± 5.3 | 106 ± 7.5 | 86.1 ± 3.7 | 4 | 9 | 11 | 916 ± 51.6 | –
c1cc2nc(c1)CNCCCNCCCNCCNCCCNCCCNC2 [Py33233] | 507 ± 8.3 | 583 ± 6.9 | 484 ± 10.7 | 3 | 2 | 3 | 1290 ± 77.5 | –
c1cc2nc(c1)CNCCCNCCCNCCCNCCCNCCCNC2 [Py33333] | 36.5 ± 1.1 | 70.5 ± 5.2 | 8.51 ± 0.6 | 41 | 21 | 176 | 1500 ± 75.3 | Selectivity Index Amastigote Forms [5]: 882; IC50 ([5]; Leishmania infantum): 1.7 ± 0.2 µM; Fe-SOD activity inhibition (in words) (L. infantum Fe-SOD): no inhibition; Acetate production and excretion variation (L. infantum): -20.61%; D-lactate production and excretion variation (L. infantum): -19.58%; L-alanine production and excretion variation (L. infantum): -19.83%; Pyruvate production and excretion variation (L. infantum): -22.89%; Succinate production and excretion variation (L. infantum): -20.30%
c1cc2nc(c1)CNCCCNCCNCCCNCCNCCCNC2 [Py32323] | 1630 ± 76.4 | 130 ± 9.5 | 90.6 ± 3.8 | – | 1 | 1 | 85.4 ± 4.6 | –
c1cc2cc(c1)CNCCCNCCNCCNCCCNC2 [mB3223] | 15.6 ± 0.7 | 126 ± 3.8 | 63.4 ± 2.4 | 93 | 11 | 23 | 1450 ± 89.7 | –
c1cc2ccc1CNCCNCCCNCCNC2 [pB232] | 27.2 ± 0.9 | 743 ± 23.6 | 367 ± 10.5 | 26 | 1 | 2 | 719 ± 20.5 | –

Further lines, with some results ahead:

IC50 ([1]; Leishmania braziliensis) [µM] | IC50 ([2]; Leishmania donovani) [µM] | IC50 ([3]; Leishmania infantum) [µM] | Molecule | Selectivity Index Promastigote Forms [1] | Selectivity Index Promastigote Forms [2] | Selectivity Index Promastigote Forms [3] | IC50 ([6]; Mus musculus) [µM] | also measured
5.8 ± 0.2 | 25 ± 0.8 | 13 ± 0.4 | c1c2n[nH]c1CNCCNCCCNCCNC2 [PZ232] | 116 | 27 | 52 | 674 ± 66.3 | Selectivity Index Amastigote Forms [4]: 421; IC50 ([4]; Leishmania braziliensis): 1.6 ± 0.6 µM; Selectivity Index Amastigote Forms [5]: 138; IC50 ([5]; Leishmania infantum): 4.9 ± 0.4 µM; Amastigote number/infected cell, percentage in plot key (reduction vs control) (L. braziliensis [7]): 32.4%; Acetate production and excretion variation (L. braziliensis [8]): -38.64%; D-lactate production and excretion variation (L. braziliensis [8]): -38.98%; L-alanine production and excretion variation (L. braziliensis [8]): -37.91%; Pyruvate production and excretion variation (L. braziliensis [8]): -35.69%; Succinate production and excretion variation (L. braziliensis [8]): -37.83%; Acetate production and excretion variation (L. infantum): -11.80%; D-lactate production and excretion variation (L. infantum): -11.58%; L-alanine production and excretion variation (L. infantum): -13.15%; Pyruvate production and excretion variation (L. infantum): -14.03%; Succinate production and excretion variation (L. infantum): -16.36%
29.2 ± 0.8 | 28.4 ± 0.6 | 56.7 ± 2.6 | c1cc2nc(c1)CNCCCNCCCCNC2 [Py34] | 19 | 20 | 10 | 569 ± 45.8 | –
91.7 ± 3.7 | 171 ± 10.4 | 205 ± 30.7 | c1cc2cc(c1)CNCCNCCCNCCNC2 [mB232] | 7 | 4 | 3 | 667 ± 88.5 | –
442 ± 5.8 | 1000 ± 78.4 | 93.4 ± 3.7 | c1cc2nc(c1)CNCCCNCCNCCNCCNCCCNC2 [Py32223] | – | – | 1 | 57.7 ± 1.9 | –
291 ± 3.8 | 52.5 ± 2.1 | 192 ± 5.8 | c1cc2nc(c1)CNCCCNCCNCCNCCCNC2 [Py3223] | 1 | 3 | 1 | 165 ± 4.9 | –
15.7 ± 0.5 | 1.4 ± 0.3 | 70 ± 0.7 | c1c2n[nH]c1CNCCCNCCCNCCCNC2 [PZ333] | 63 | 704 | 14 | 985 ± 72.8 | Selectivity Index Amastigote Forms [9]: 579; IC50 ([9]; Leishmania donovani): 1.7 ± 0.5 µM; Acetate production and excretion variation (L. donovani): 33.66%; D-lactate production and excretion variation (L. donovani): 29.85%; L-alanine production and excretion variation (L. donovani): 32.65%; Pyruvate production and excretion variation (L. donovani): 37.88%; Succinate production and excretion variation (L. donovani): 42.10%
2.3 ± 0.5 | 158 ± 7.3 | 95.6 ± 4.8 | c1cc2cc(c1)CNCCCNCCNCCCNC2 [mB323, 3,7,10,14 Tetraaza-1(2,6)-benzenacyclopentadecaphane] | 186 | 3 | 4 | 428 ± 22.6 | Selectivity Index Amastigote Forms [4]: 25; IC50 ([4]; Leishmania braziliensis): 17.1 ± 1.1 µM
26.2 ± 1.1 | 0.2 | 30.4 ± 1.4 | c1cc2nc(c1)CNCCCNCCCNCCCNC2 [Py333] | 12 | 1549 | 10 | 310 ± 43.8 | Selectivity Index Amastigote Forms [9]: 18; IC50 ([9]; Leishmania donovani): 16.8 ± 0.5 µM
